Columns and labels:
Nav1.8 F1710K [1] = test: INaR, Nav1.8 mutant F1710K; format: cell-based, human; settings: 1 mM FHF4A peptide
Method: (§1) HEK293 cells and ND7/23 cells were grown under standard tissue culture conditions (5% CO2 and 37°C) in DMEM supplemented with 10% FBS, 1% penicillin and 1% streptomycin. Using Invitrogen Lipofectamine 2000, human Nav1.7 R1599P (rpNav1.7) and the mutant constructs were transiently co-transfected with Navβ1 and Navβ2 into HEK293 cells. The constructs human Nav1.8 and mutants were transiently co-transfected with FHF2B or FHF4A into ND7/23 cells. The lipofectamine-DNA mixture was added to the cell culture medium and left for 3 h after which the cells were washed with fresh medium. Cells with green fluorescent protein fluorescence were selected for whole-cell patch-clamp recordings 36–72 h after transfection.
(§2) Whole-cell voltage-clamp recordings were performed at room temperature (~21°C) using an EPC-10 amplifier and the Pulse program (HEKA Electronics). […]
(§3) INaR: INaR was elicited by repolarizing voltage steps from +20 to −80 mV for 100 ms (or 200 ms) in −5 mV increments, following a 20-ms depolarizing potential of +30 mV. […] The relative INaR in Nav1.7 and Nav1.8 was calculated by normalizing to the peak transient current elicited at −10 or 0 mV.

Nav1.8 [2] = settings: n = 6, ref Xiao et al., 2022; cited from earlier work
Source text: Increased INaR may result from destabilizing fast inactivation or increasing “window currents” of VGSCs ([Xiao et al., 2019]).

Nav1.8 Y387K [3] = test: Gating properties, Nav1.8 mutant Y387K; format: cell-based, human; settings: 1 mM FHF4A peptide
Method: as §1
(§4) Whole-cell voltage-clamp recordings were performed at room temperature (~21°C) using an EPC-10 amplifier and the Pulse program (HEKA Electronics). Fire-polished electrodes (0.7–1.0 MΩ) were fabricated from 1.7 mm capillary glass using a P-97 puller (Sutter Instruments), and the tips were coated with sticky wax (KerrLab) to reduce electrode capacitance and enable increased series resistance compensation. The pipette solution contained (in mM) 140 CsF, 1.1 EGTA, 10 NaCl, and 10 HEPES, pH 7.3. The bathing solution was (in mM) 130 mM NaCl, 30 mM TEA chloride, 1 mM MgCl2, 3 mM KCl, 1 mM CaCl2, 10 mM HEPES, and 10 mM d-glucose, pH 7.3 (adjusted with NaOH). […] The offset potential was zeroed before contacting the cell. After establishing the whole-cell recording configuration, the resting potential was held at −120 or −100 mV for 5 min to allow adequate equilibration between the micropipette solution and the cell interior. Linear leak subtraction, based on resistance estimates from four to five hyperpolarizing pulses applied before the depolarizing test potential, was used for all voltage clamp recordings. Membrane currents were usually filtered at 5 kHz and sampled at 20 kHz. […] Voltage errors were minimized using 80–95% series resistance compensation, and the capacitance artifact was canceled using the computer-controlled circuitry of the patch clamp amplifier. […] The concentration-dependent curves were fitted to a hill equation: Y = Bottom + (Top-Bottom)/(1 + 10^((LogEC50-X)*HillSlope)).
(§5) Families of sodium currents were induced by 50-ms depolarizing steps to various potentials ranging from −120 (or −100) to +40 mV in 5-mV increments. The conductance was calculated using the equation G(Nav) = I/(V - Vrev) in which I, V, and Vrev represent inward current value, membrane potential, and reversal potential, respectively. […]

Nav1.8 N891S [4] = test: INaR, Nav1.8 mutant N891S; format: cell-based, human; settings: 1 mM FHF4A peptide, + FHF2B, ND7/23; −80 to +20 mV; n = 6
Method: as §1, §2, §3

Nav1.8 N390K [5] = test: INaR, Nav1.8 mutant N390K; format: cell-based, human; settings: 1 mM FHF4A peptide
Method: as §1, §2, §3

Nav1.8 F1710K [6] = test: Gating properties, Nav1.8 mutant F1710K; format: cell-based, human
Method: as §1, §4
(§6) Families of sodium currents were induced by 50-ms depolarizing steps to various potentials ranging from −120 (or −100) to +40 mV in 5-mV increments. The conductance was calculated using the equation G(Nav) = I/(V - Vrev) in which I, V, and Vrev represent inward current value, membrane potential, and reversal potential, respectively.
(§7) Voltage dependence of steady-state inactivation was estimated using a standard double pulse protocol in which sodium currents were induced by a 50-ms depolarizing potential of 0 mV following a 500-ms prepulse at potentials that ranged from −150 to +10 mV with a 10-mV increment. Currents were plotted as a fraction of the maximum peak current. To obtain the midpoint voltages (V1/2) and slope factor (k), the curves of both steady-state activation and inactivation were fitted to a Boltzmann function.

Nav1.8 N891S [7] = test: Gating properties, Nav1.8 mutant N891S; format: cell-based, human; settings: 1 mM FHF4A peptide
Method: as §1, §4, §5

Nav1.8 Y387K [8] = test: INaR, Nav1.8 mutant Y387K; format: cell-based, human; settings: 1 mM FHF4A peptide, + FHF2B, ND7/23; n = 8; p > 0.05 vs Nav1.8
Method: as §1, §2, §3

Nav1.8 N390K [9] = test: Gating properties, Nav1.8 mutant N390K; format: cell-based, human; settings: 1 mM FHF4A peptide
Method: as §1, §4, §5

[10] = target: T1, human Nav1.7 R1599P (rpNav1.7) (Homo sapiens, UniProt Q15858, R1610P); test: Long-term inactivation of rpNav1.7; format: cell-based
T1 construct: expressed in transfected cells; host or cells: HEK293 cells, transient transfection with pcDNA3.1 construct

Nav1.8 [11] = settings: ref Xiao et al., 2022; cited from earlier work
Source text: Next, we investigated if FHF4A, another INaR mediator reported recently ([White et al., 2019]; [Xiao et al., 2022]), shares the receptor site in VGSCs with Navβ4 peptide. […] They consist of a long N-terminus, an FGF-like β-trefoil core, and a short C-terminus ([Goldfarb, 2005]). They display an intrinsic capability to generate INaR, to a varying extent, in Nav1.8 and Nav1.9.

Nav1.8 Y1717K = test: Gating properties, Nav1.8 mutant Y1717K; format: cell-based, human
Method: as §1, §4, §6, §7

T1 sequence (Q15858 1-1977 isoform Q15858-3 R1599P): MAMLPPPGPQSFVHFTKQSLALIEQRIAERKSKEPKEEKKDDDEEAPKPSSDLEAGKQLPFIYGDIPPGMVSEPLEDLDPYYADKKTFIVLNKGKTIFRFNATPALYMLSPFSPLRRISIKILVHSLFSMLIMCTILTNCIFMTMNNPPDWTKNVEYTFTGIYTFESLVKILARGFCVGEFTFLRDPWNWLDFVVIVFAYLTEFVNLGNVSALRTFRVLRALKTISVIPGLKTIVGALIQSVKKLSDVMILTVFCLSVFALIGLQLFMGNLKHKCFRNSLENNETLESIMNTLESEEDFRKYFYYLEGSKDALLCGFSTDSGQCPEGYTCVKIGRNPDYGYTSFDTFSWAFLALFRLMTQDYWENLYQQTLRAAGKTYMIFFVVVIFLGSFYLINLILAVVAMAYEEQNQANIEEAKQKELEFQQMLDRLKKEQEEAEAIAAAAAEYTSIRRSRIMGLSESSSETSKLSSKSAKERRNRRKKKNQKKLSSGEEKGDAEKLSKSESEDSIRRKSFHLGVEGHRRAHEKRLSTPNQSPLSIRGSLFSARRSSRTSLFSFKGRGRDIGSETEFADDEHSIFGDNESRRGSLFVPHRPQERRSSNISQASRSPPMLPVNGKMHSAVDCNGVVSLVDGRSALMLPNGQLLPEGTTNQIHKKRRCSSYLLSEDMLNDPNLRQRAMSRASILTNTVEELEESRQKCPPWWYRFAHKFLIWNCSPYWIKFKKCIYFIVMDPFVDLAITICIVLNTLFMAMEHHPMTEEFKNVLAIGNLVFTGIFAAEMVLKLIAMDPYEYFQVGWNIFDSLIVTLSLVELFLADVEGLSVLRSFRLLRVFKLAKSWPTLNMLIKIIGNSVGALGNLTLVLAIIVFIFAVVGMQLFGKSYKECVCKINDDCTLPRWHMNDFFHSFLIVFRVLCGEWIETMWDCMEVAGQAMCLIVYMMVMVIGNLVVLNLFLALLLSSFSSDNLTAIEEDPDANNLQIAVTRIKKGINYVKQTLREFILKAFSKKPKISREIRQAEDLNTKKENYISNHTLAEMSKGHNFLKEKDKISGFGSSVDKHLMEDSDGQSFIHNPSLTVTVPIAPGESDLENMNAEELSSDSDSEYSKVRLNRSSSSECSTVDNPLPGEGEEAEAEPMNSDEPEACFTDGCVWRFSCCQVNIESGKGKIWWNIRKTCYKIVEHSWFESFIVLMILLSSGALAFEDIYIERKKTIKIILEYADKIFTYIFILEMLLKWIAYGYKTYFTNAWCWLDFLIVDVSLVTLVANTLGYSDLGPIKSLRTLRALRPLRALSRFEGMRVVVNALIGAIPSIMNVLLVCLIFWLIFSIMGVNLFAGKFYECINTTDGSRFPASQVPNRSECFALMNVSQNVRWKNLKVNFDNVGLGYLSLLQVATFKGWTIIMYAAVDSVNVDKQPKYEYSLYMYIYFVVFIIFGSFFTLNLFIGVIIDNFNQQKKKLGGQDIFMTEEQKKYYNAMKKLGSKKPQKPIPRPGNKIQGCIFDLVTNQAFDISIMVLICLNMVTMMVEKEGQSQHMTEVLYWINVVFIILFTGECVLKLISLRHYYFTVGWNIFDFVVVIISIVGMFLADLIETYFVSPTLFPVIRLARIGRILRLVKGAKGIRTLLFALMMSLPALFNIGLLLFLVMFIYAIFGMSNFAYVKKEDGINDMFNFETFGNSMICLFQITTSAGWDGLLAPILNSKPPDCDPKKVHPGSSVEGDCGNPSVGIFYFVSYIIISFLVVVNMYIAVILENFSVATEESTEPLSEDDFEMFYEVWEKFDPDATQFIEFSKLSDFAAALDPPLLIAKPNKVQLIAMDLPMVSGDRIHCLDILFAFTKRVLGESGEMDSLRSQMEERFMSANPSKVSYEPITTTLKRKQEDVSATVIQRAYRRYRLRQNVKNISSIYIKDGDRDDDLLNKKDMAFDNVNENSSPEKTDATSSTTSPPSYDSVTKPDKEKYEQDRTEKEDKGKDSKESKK
T1 sequence (Q07699 19-218 partner): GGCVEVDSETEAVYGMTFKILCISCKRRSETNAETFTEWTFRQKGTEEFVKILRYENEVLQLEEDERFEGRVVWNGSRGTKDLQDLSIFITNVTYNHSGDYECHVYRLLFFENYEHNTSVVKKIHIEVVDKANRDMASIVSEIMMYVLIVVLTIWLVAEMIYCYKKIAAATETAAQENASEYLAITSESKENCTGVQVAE
T1 sequence (O60939 30-215 partner): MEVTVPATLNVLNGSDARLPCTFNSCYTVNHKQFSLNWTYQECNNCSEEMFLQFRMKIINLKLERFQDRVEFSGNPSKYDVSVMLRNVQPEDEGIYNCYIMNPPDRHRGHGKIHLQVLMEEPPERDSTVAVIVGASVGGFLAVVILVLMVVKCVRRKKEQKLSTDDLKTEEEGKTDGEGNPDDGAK

Sequence: AAAIASGLIRQKRQAREQHW [FHF4A peptide, synthetic 20-residue peptide from FHF4A A2 – W21]
- average INaR amplitude at −15 mV, F1710K (Nav1.8 F1710K [1]; + FHF2B, ND7/23, n = 6, p < 0.0001 vs Nav1.8): 0.5% ± 0.1%
- decrease of INaR amplitude by F1710K (Nav1.8 F1710K [1]; −15 mV, vs Nav1.8): ninefold
- FHF4A peptide mediated Nav1.8 INaR without FHF2B (control) (Nav1.8 [2]): 2.5% ± 0.4%
- V1/2 of steady-state inactivation, Y387K vs Nav1.8 (Nav1.8 Y387K [3]): None of four lysine-mutations significantly changed the V1/2 value of steady-state inactivation
- Activation (V1/2), Y387K (Nav1.8 Y387K [3]; + FHF2B, ND7/23, n = 10): −9.9 ± 2.1 (10) mV
- Inactivation (V1/2), Y387K (Nav1.8 Y387K [3]; + FHF2B, ND7/23, n = 10): −30.7 ± 1.5 (10) mV
- INaP, Y387K (Nav1.8 Y387K [3]; end of 50-ms pulse of +10 mV, normalized to peak transient current, n = 8): 3.6 ± 0.9 (8) %
- INaR, N891S (Nav1.8 N891S [4]): no INaR was induced
- voltage dependence of INaR, N390K (Nav1.8 N390K [5]): slightly shifted the voltage dependence of Nav1.8 INaR to more positive potentials
- average INaR amplitude at −15 mV, N390K (Nav1.8 N390K [5]; + FHF2B, ND7/23, n = 7, p > 0.05 vs Nav1.8): 4.4% ± 0.7%
- V1/2 of steady-state inactivation, F1710K vs Nav1.8 (Nav1.8 F1710K [6]; 1 mM FHF4A peptide): None of four lysine-mutations significantly changed the V1/2 value of steady-state inactivation
- Inactivation (V1/2), F1710K (Nav1.8 F1710K [6]; 1 mM FHF4A peptide, + FHF2B, ND7/23, n = 7): −41.1 ± 5.5 (7) mV
- Activation (V1/2), F1710K (Nav1.8 F1710K [6]; 1 mM FHF4A peptide, + FHF2B, ND7/23, n = 7, ***p < 0.0001): 19.9 ± 2.0*** (7) mV
- INaP, F1710K (Nav1.8 F1710K [6]; end of 50-ms pulse of +10 mV, normalized to peak transient current, 1 mM FHF4A peptide, n = 6, **p < 0.01): 0.8 ± 0.9^** (6) %
- positive shift of voltage dependence of activation by F1710K (Nav1.8 F1710K [6]; vs Nav1.8, 1 mM FHF4A peptide): 31.0 mV
- steady-state activation or inactivation, N891S vs Nav1.8 (Nav1.8 N891S [7]): no effect on steady-state activation or inactivation
- Activation (V1/2), N891S (Nav1.8 N891S [7]; + FHF2B, ND7/23, n = 6): −8.6 ± 2.1 (6) mV
- Inactivation (V1/2), N891S (Nav1.8 N891S [7]; + FHF2B, ND7/23, n = 6): −36.4 ± 0.7 (6) mV
- INaP, N891S (Nav1.8 N891S [7]; end of 50-ms pulse of +10 mV, normalized to peak transient current, n = 6, ***p < 0.0001): 1.1 ± 0.5^*** (6) %
- average INaR amplitude at −15 mV, Y387K (Nav1.8 Y387K [8]): 5.3% ± 0.5%
- V1/2 of steady-state inactivation, N390K vs Nav1.8 (Nav1.8 N390K [9]): None of four lysine-mutations significantly changed the V1/2 value of steady-state inactivation
- Activation (V1/2), N390K (Nav1.8 N390K [9]; + FHF2B, ND7/23, n = 7): −9.7 ± 1.8 (7) mV
- Inactivation (V1/2), N390K (Nav1.8 N390K [9]; + FHF2B, ND7/23, n = 7): −33.5 ± 1.0 (7) mV
- INaP, N390K (Nav1.8 N390K [9]; end of 50-ms pulse of +10 mV, normalized to peak transient current, n = 7, *p < 0.05): 5.6 ± 2.2^* (7) %
- effect on long-term inactivation of rpNav1.7 ([10]; 1 mM FHF4A peptide, HEK293): evidently enhanced accumulation of long-term inactivation of rpNav1.7
- fraction of the current elicited at the 6th pulse ([10]; rpNav1.7, HEK293, 1 mM, six 16-ms pulses of −10 mV from −100 mV, 40-ms interpulse, scramble n = 6, FHF4A peptide n = 5, p < 0.0001): 0.21 ± 0.03
- Nav1.8 INaR reconstitution by FHF4A A2 – W21 peptide (Nav1.8 [11]): could reconstitute the Nav1.8 INaR mediated by full-length FHF4A
- V1/2 of steady-state inactivation, Y1717K vs Nav1.8 (Nav1.8 Y1717K; 1 mM FHF4A peptide): None of four lysine-mutations significantly changed the V1/2 value of steady-state inactivation
- Inactivation (V1/2), Y1717K (Nav1.8 Y1717K; 1 mM FHF4A peptide, + FHF2B, ND7/23, n = 10): −38.4 ± 1.0 (10) mV
- Activation (V1/2), Y1717K (Nav1.8 Y1717K; 1 mM FHF4A peptide, + FHF2B, ND7/23, n = 10, ***p < 0.0001): 7.3 ± 1.5*** (10) mV
- INaP, Y1717K (Nav1.8 Y1717K; end of 50-ms pulse of +10 mV, normalized to peak transient current, 1 mM FHF4A peptide, n = 10): 5.4 ± 3.8 (10) %
- positive shift of voltage dependence of activation by Y1717K (Nav1.8 Y1717K; vs Nav1.8, 1 mM FHF4A peptide): 18.4 mV
